Legend:
[1] = Crystallization by vapor diffusion; format: physicochemical
Method: Based on approximate solubility results, about 20 mg of Compound 1 free form Pattern E was dissolved in the minimal amount of good solvent in 2 mL glass vial without lid. Then the 2 mL lid less vial was placed to 8 mL vial. To the 8 mL vial was added anti-solvent. Then the 8 mL vial was capped and placed at ambient condition. Precipitates were collected by centrifugation filtration through a 0.45 μm nylon membrane filter at 14,000 rpm for 5 min. Solid parts (wet cakes) were investigated by XRPD.

[2] = Salt and cocrystal evaluation (equilibration, cooling, slow evaporation, anti-solvent, re-equilibration); format: physicochemical
Method: Compound 1 was investigated with a variety of salts to find additional morphic forms and cocrystals. This salt and cocrystal investigation for Compound 1 was performed with free form Pattern A*. This is a hydrate with medium crystallinity. […] Acetone, methanol, ethyl acetate and acetonitrile were used as evaluation solvents. Five crystallization methods, including equilibration, fast cooling, slow evaporation, addition of anti-solvent and re-equilibration, were applied to obtain salt or cocrystal hits. From these investigations only one crystalline form—a urea cocrystal Form P was identified.
Based on the pKa of free form, 14 acids were selected for evaluation in acetone and methanol. About 30 mg of Compound 1 free form and 1 or 2 equivalents of salt forming agents 5 were weighed into 2 mL glass vials. 200 μL of acetone or methanol was added. […] To avoid degradation, experiments with strong acids were conducted without heating. Samples were stirred at 25° C. for 2 days. Obtained suspensions were taken out and centrifuged. Then wet cakes were dried at 25° C. under vacuum for 2 h. Obtained solids were analyzed by XRPD and results were summarized.
To obtain crystalline salts, another two solvents including ethyl acetate and acetonitrile were added as solvents. About 30 mg of Compound 1 free form and 1 or 2 equivalents of salt forming agents were weighed into 2 mL glass vials. 400 μL of ethyl acetate or 300 μL of acetonitrile was added. Samples were stirred at 25° C. for 2 days. Obtained solids were analyzed by XRPD and results were summarized.
Nicotinamide and urea were selected as crystallization agents for cocrystal evaluation. Acetone, methanol, ethyl acetate and acetonitrile were used as solvents. About 30 mg of Compound 1 free form, and 1 equivalent of crystallization agent were weighed into 2 mL glass vials. […] of acetone, 200 μL of methanol, […] of ethyl acetate or 300 µL of acetonitrile was added. Obtained suspensions were stirred at 25° C. for 2 days. Obtained solids were analyzed by XRPD and results were summarized.
Supernatants obtained from equilibration experiments were cooled to 5° C. and stirred at 5° C. for 3 days. Then obtained suspensions were centrifuged at 5° C. and solids were dried under vacuum at 25° C. for 2 h. No crystalline salt was obtained.
No crystalline hits were obtained.
Amorphous salts from above experiments were re-equilibrated at 25° C. for crystallization. No crystalline salt hits were obtained.

## COc1cc(-c2cn(C)c(=O)c(C)c2C)cc(OC)c1CN1CC[C@H](N2CCN(c3ccc(N[C@H]4CCC(=O)NC4=O)cc3F)CC2)C(F)(F)C1 [Compound 1, (S)-3-((4-(4-((S)-1-(2,6-dimethoxy-4-(1,4,5-trimethyl-6-oxo-1,6-dihydropyridin-3-yl)benzyl)-3,3-difluoropiperidin-4-yl)piperazin-1-yl)-3-fluorophenyl)amino)-piperidine-2,6-dione]
[1]; vapor diffusion, 1,4-Dioxane/50, anti-solvent MTBE/600
  Comments: Gum-like sample
[1]; vapor diffusion, 2-MeTHF/120, anti-solvent MTBE/1080
  Comments: Gum-like sample
[1]; vapor diffusion, THF/50, anti-solvent MTBE/600
  Comments: Gum-like sample
[2]; 1.05 equiv. Sulfuric acid, Acetone, +200 μL EA
  Results (re-equilibration for 8 days) Acetone: Free form Pattern B*
[2]; 2.10 equiv. Hydrochloric acid, Acetone, +100 μL ACN
  Results (re-equilibration for 8 days) Acetone: +100 μL ACN, Gel-like sample
[2]; 2.10 equiv. Methanesulfonic acid, Acetone, +200 μL EA
  Results (re-equilibration for 8 days) Acetone: +200 μL EA, Gel-like sample
[2]; 2.10 equiv. Trifluoroacetic acid, Acetone, +400 μL MTBE
  Results (anti-solvent addition) A Acetone: Clear solution
[2]; 2.10 equiv. Trifluoroacetic acid, EA, +200 μL MTBE, suspension, AF = Amorphous form
  Results (anti-solvent addition) C EA, XRPD: XRPD: AF*
[2]; cooled to 5° C., 3 days, 1.05 equiv. Fumaric acid, Acetone
  Results (cooling) A Acetone: Clear Solution
[2]; cooled to 5° C., 3 days, 1.05 equiv. Sulfuric acid, Acetone
  Results (cooling) A Acetone: Clear Solution
[2]; cooled to 5° C., 3 days, 1.05 equiv. Sulfuric acid
  Results (cooling) B MeOH: Clear Solution
[2]; cooled to 5° C., 3 days, 2.10 equiv. Citric acid
  Results (cooling) B MeOH: Clear Solution
[2]; cooled to 5° C., 3 days, 2.10 equiv. Fumaric acid, Acetone
  Results (cooling) A Acetone: Clear Solution
[2]; cooled to 5° C., 3 days, 2.10 equiv. Hydrochloric acid, Acetone
  Results (cooling) A Acetone: Clear Solution
[2]; cooled to 5° C., 3 days, 2.10 equiv. Hydrochloric acid
  Results (cooling) B MeOH: Clear Solution
[2]; cooled to 5° C., 3 days, 2.10 equiv. L-Malic acid, Acetone
  Results (cooling) A Acetone: Clear Solution
[2]; cooled to 5° C., 3 days, 2.10 equiv. Maleic acid
  Results (cooling) B MeOH: Clear Solution
[2]; cooled to 5° C., 3 days, 2.10 equiv. Methanesulfonic acid
  Results (cooling) B MeOH: Clear Solution
[2]; cooled to 5° C., 3 days, 2.10 equiv. Succinic acid, Acetone
  Results (cooling) A Acetone: Clear Solution
[2]; cooled to 5° C., 3 days, 2.10 equiv. Sulfuric acid, Acetone
  Results (cooling) A Acetone: Clear Solution
[2]; cooled to 5° C., 3 days, 2.10 equiv. Sulfuric acid
  Results (cooling) B MeOH: Clear Solution
[2]; cooled to 5° C., 3 days, 2.10 equiv. Trifluoroacetic acid, ACN
  Results (cooling) D ACN: Clear Solution
[2]; cooled to 5° C., 3 days, 2.10 equiv. Trifluoroacetic acid, Acetone
  Results (cooling) A Acetone: Clear Solution
[2]; cooled to 5° C., 3 days, 2.10 equiv. Trifluoroacetic acid, EA
  Results (cooling) C EA: Clear Solution
[2]; cooled to 5° C., 3 days, 2.10 equiv. Trifluoroacetic acid
  Results (cooling) B MeOH: Clear Solution
[2]; cooled to 5° C., 3 days, 2.10 equiv. p-Toluenesulfonic acid
  Results (cooling) B MeOH: Clear Solution
[2]; equilibration, 1.05 equiv. Fumaric acid, Acetone
  Results A Acetone: Clear solution
[2]; equilibration, 1.05 equiv. Nicotinamide, Acetone
  Results A Acetone: Clear solution
[2]; equilibration, 1.05 equiv. Urea, Acetone
  Results A Acetone: Clear solution
[2]; equilibration, 2.10 equiv. Adipic acid, Acetone
  Results A Acetone: Clear solution
[2]; equilibration, 2.10 equiv. Fumaric acid, Acetone
  Results A Acetone: Clear solution
[2]; equilibration, 2.10 equiv. L-Malic acid, Acetone
  Results A Acetone: Clear solution
[2]; equilibration, 2.10 equiv. Methanesulfonic acid, EA, AF = Amorphous form
  Results C EA: AF MSA salt*
[2]; equilibration, 2.10 equiv. Succinic acid, Acetone
  Results A Acetone: Clear solution
[2]; equilibration, 2.10 equiv. Trifluoroacetic acid, ACN
  Results D ACN: Clear solution
[2]; equilibration, 2.10 equiv. Trifluoroacetic acid, Acetone
  Results A Acetone: Clear solution
[2]; equilibration, 2.10 equiv. Trifluoroacetic acid, EA
  Results C EA: Clear solution
